Measurements taken from US8178506B2, “Oligomeric compounds and compositions for use in modulation of small non-coding RNAs” (Regulus Therapeutics Inc., priority 2003, dated 2012).
In the oligonucleotide strings, read from the 5' end, every base follows the letter of its sugar. An asterisk marks phosphorothioate; unmarked linkages are phosphodiester. Other units and linkages are bracketed, terminal groups are in braces. A string of capitals states the bases alone. e = 2'-O-(2-methoxyethyl) (MOE); [5mC] = 5-methylcytosine; d = 2'-deoxy (DNA)

System: B16-F10 cells
Experiment: Cell cycle assay in B16-F10 cells
Type: cell-based, mouse
Settings: 150 nM, 48 hours, relative to untreated control
Description: BJ cells were routinely cultured in MEM high glucose with 2 mM L-glutamine and Earle's BSS adjusted to contain 1.5 g/L sodium bicarbonate and supplemented with 10% fetal bovine serum, 0.1 mM non-essential amino acids and 1.0 mM sodium pyruvate (all media and supplements from Invitrogen Life Technologies, Carlsbad, Calif.). B16-F10 cells were routinely cultured in DMEM high glucose (Invitrogen Life Technologies, Carlsbad, Calif.) supplemented with 10% fetal bovine serum (Invitrogen Life Technologies, Carlsbad, Calif.). T47D cells were cultured in DMEM High glucose media (Invitrogen Life Technologies, Carlsbad, Calif.) supplemented with 10% fetal bovine serum. […] Cells were plated on collagen-coated 24-well plates (Falcon-Primaria #3047, BD Biosciences, Bedford, Mass.) at approximately 50,000 cells per well and allowed to attach to wells overnight.
In further studies, additional cell lines were treated with oligomeric compounds targeted against miRNAs to assess the effects of each oligomeric compound on cell cycling. BJ, B16, T47D, and HeLa cells were cultured and transfected as described above. […] T47Dp53 cells are T47D cells that have been transfected with and selected for maintenance of a plasmid that expresses a wildtype copy of the p53 gene (for example, pCMV-p53; Clontech, Palo Alto, Calif.), using standard laboratory procedures. BJ cells were treated with 200 nM of each oligomeric compound, and T47D, T47Dp53, HeLa, and B16 cells were treated with 150 nM of each oligomeric compound. The human foreskin fibroblast BJ cell line represents a non-cancer cell line, while HeLa, T47D, T47Dp53 cells and the mouse melanoma cell line B16-F10 represent cancerous cell lines. For comparison, oligomeric compounds ISIS 183891 (SEQ ID NO: 847) and ISIS 285717 ([…]; herein incorporated as SEQ ID NO: 857), both targeting the kinesin-like 1/Eg5 mRNA, involved in cell cycling, were used as positive controls. The random-mer ISIS 29848 was used as a negative control. Additionally, the oligomeric compounds ISIS Number 25690 ([…]; herein incorporated as SEQ ID NO: 858) and ISIS Number 25691 ([…]; herein incorporated as SEQ ID NO: 859), targeted to nucleotides 3051-3070 and 3085-3104, respectively, of the mRNA encoding the Drosha RNase III (GenBank Accession NM_013235.2, incorporated herein as SEQ ID NO: 860) were also tested. ISIS Number 25690 and ISIS Number 25691 are 5-10-52′-MOE gapmer compounds, 20 nucleotides in length, with phosphorothioate internucleoside linkages throughout the oligomeric compound. All cytidine residues are 5-methylcytidines. Transfections were performed using the methods described herein. Cells were prepared for flow cytometry 48-hours after oligonucleotide treatment. Results of these studies are shown in Table 35, where data are expressed as percentage of cells in each phase relative to the untreated control cells in that phase.

Substance | % cells in cell cycle phase G1 [%] | % cells in cell cycle phase G2/M [%] | % cells in cell cycle phase S [%] | % cells in cell cycle phase aneuploid [%] | % cells in cell cycle phase subG1 [%]
327905 (antisense e[5mC]*eA*eG*eA*e[5mC]*eT*e[5mC]*e[5mC]*eG*eG*eT*eG*eG*eA*eA*eT*eG*eA*eA*eG*eG*eA) [compound 327905] | 107 | 106 | 89 | 94 | 142
327933 (antisense eA*eA*eG*eG*eG*eA*eT*eT*e[5mC]*e[5mC]*eT*eG*eG*eG*eA*eA*eA*eA*e[5mC]*eT*eG*eG*eA*e[5mC]) [compound 327933] | 109 | 116 | 84 | 130 | 104
328759 (antisense eG*eA*eG*eG*eG*dA*dT*dT*dG*dT*dA*dT*dG*dA*dA*e[5mC]*eA*eT*e[5mC]*eT) [compound 328759] | 104 | 110 | 91 | 126 | 132
327902 (antisense eG*eG*e[5mC]*eT*eG*eT*e[5mC]*eA*eA*eT*eT*e[5mC]*eA*eT*eA*eG*eG*eT*e[5mC]*eA*eG) [compound 327902] | 112 | 98 | 88 | 101 | 151
